Assay results from patent US11951094B2, “TLR2 modulator compounds, pharmaceutical compositions and uses thereof” (Axial Therapeutics, Inc., priority 2020, dated 2024).

Biological target: TLR2 (Homo sapiens, UniProt O60603)
Experiment: TLR2 agonist screening assay, HEK-Blue TLR2 reporter cell line (NF-kB-driven SEAP, absorbance at 600 nm)
Format: cell-based
Set-up: host or cells: HEK-293 (HEK-Blue TLR2 reporter cell line)
Settings: HEK-Blue TLR2 reporter cells, agonist mode
Procedure, shortened: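 HEK-293 cells expressing TLR2 with NF-kB-driven SEAP were plated at 40,000 per well. After 16-24 h, they were treated overnight with diluted agonists in detection medium (1% DMSO final). Absorbance at 600 nm was read, and EC50 values were fitted.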

Chain of TLR2 (O60603 21-784): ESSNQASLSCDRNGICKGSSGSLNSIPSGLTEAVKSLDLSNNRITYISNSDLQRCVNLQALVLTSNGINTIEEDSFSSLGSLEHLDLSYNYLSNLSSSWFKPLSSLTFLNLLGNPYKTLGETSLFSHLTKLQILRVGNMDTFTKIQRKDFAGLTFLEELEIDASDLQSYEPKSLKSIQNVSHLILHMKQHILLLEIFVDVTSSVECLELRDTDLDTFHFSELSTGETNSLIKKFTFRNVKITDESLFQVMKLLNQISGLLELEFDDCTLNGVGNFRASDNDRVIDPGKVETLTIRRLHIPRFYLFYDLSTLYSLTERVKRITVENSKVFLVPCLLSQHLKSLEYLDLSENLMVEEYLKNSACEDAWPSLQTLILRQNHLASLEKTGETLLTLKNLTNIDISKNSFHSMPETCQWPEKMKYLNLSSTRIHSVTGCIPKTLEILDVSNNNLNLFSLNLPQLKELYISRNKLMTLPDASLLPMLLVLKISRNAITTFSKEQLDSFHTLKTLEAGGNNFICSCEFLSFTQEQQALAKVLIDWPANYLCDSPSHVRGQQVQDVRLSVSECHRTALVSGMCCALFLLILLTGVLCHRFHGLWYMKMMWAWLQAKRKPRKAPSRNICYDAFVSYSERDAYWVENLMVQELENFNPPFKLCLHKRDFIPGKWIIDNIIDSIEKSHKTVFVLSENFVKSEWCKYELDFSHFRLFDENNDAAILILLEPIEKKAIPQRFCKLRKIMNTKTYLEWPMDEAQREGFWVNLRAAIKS

EC50 (average of all runs (Table 4))	EC50 (average of all runs (Table 3))	Structure (SMILES)
> 1000 nM	–	CCCCCCCCCCCCCCCN[C@@H]1CCN(C(=O)c2ccc(C(=O)N3C[C@@H](C(=O)N[C@H]4C[C@@H]4c4ccccc4)[C@H](C(=O)N[C@H]4C[C@@H]4c4ccccc4)C3)cc2)C1 [Compound 082, (3S,4S)-1-(4-((R)-3-(pentadecylamino)pyrrolidine-1-carbonyl)benzoyl)-N3,N4-bis((1S,2R)-2-phenylcyclopropyl)pyrrolidine-3,4-dicarboxamide]
51 to 350 nM	–	CCCCCCCO[C@H]1CN(C(=O)c2ccc(C(=O)N3C[C@@H](C(=O)N[C@H]4C[C@@H]4c4ccccc4)[C@H](C(=O)N[C@H]4C[C@@H]4c4ccccc4)C3)cc2)C[C@@H]1C(=O)NCCCCCC (relative stereo) [Compound 113, (3S,4S)-1-(4-((3R*,4S*)-3-(heptyloxy)-4-(hexylcarbamoyl)pyrrolidine-1-carbonyl)benzoyl)-N3,N4-bis((1S,2R)-2-phenylcyclopropyl)pyrrolidine-3,4-dicarboxamide]
351 to 1000 nM	–	CCCCCCCCCC(=O)N[C@@H](COCc1ccc(C(=O)N2C[C@@H](C(=O)N[C@H]3C[C@@H]3c3ccccc3)[C@H](C(=O)N[C@H]3C[C@@H]3c3ccccc3)C2)cc1)C(=O)NCCCCCC [Compound 263, (3S,4S)-1-(4-(((S)-2-decanamido-3-(hexylamino)-3-oxopropoxy)methyl)benzoyl)-N3,N4-bis((1S,2R)-2-phenylcyclopropyl) pyrrolidine-3,4-dicarboxamide]
0.1 to 50 nM	–	CCCCCCCCCCCCNC(=O)N[C@H]1CN(C(c2ccc(C(=O)N3C[C@@H](C(=O)N[C@H]4C[C@@H]4c4ccccc4)[C@H](C(=O)N[C@H]4C[C@@H]4c4ccccc4)C3)cc2)C(F)(F)F)C[C@@H]1OC (single isomer, unassigned) [Compound 233, (3S,4S)-1-(4-((S*)-1-((3S,4S)-3-(3-dodecylureido)-4-methoxypyrrolidin-1-yl)-2,2,2-trifluoroethyl)benzoyl)-N3,N4-bis((1S,2R)-2-phenylcyclopropyl)pyrrolidine-3,4-dicarboxamide]
–	351 to 1000 nM	CCCCCCCCCCCCCCNC(=O)[C@@H]1CN(C(=O)c2ccc(C(=O)N3C[C@@H](C(=O)N[C@H]4C[C@@H]4c4ccccc4)[C@H](C(=O)N[C@H]4C[C@@H]4c4ccccc4)C3)cc2)C[C@H]1O (racemic) [Compound 045, (3S,4S)-1-(4-((3S*,4R*)-3-hydroxy-4-(tetradecylcarbamoyl)pyrrolidine-1-carbonyl)benzoyl)-N3,N4-bis((1S,2R)-2-phenylcyclopropyl)pyrrolidine-3,4-dicarboxamide]
–	0.1 to 50 nM	CCCCCCCC(=O)N1CCN(C(=O)c2ccc(C(=O)N3C[C@@H](C(=O)N[C@H]4C[C@@H]4c4ccccc4)[C@H](C(=O)N[C@H]4C[C@@H]4c4ccccc4)C3)cc2)CC1C(=O)NCCCCC (stereo partly drawn) [Compound 052, (3S,4S)-1-(4-(4-octanoyl-3-(pentylcarbamoyl)piperazine-1-carbonyl)benzoyl)-N3,N4-bis((1S,2R)-2-phenylcyclopropyl)pyrrolidine-3,4-dicarboxamide]
> 1000 nM	–	CCCCCCCCCCCCCCNC(=O)[C@@H]1CN(C(=O)c2ccc(C(=O)N3C[C@@H](C(=O)N[C@H]4C[C@@H]4c4ccccc4)[C@H](C(=O)N[C@H]4C[C@@H]4c4ccccc4)C3)cc2)CCN1C(=O)CC(C)(C)C [Compound 253, (3S,4S)-1-(4-((S)-4-(3,3-dimethylbutanoyl)-3-(tetradecylcarbamoyl)piperazine-1-carbonyl)benzoyl)-N3,N4-bis((1S,2R)-2-phenylcyclopropyl)pyrrolidine-3,4-dicarboxamide]
> 1000 nM	–	CCCCCCCCCCCCCNC(=O)N[C@H]1CN(c2nc3ccc(C(=O)N4C[C@@H](C(=O)N[C@H]5C[C@@H]5c5ccccc5)[C@H](C(=O)N[C@H]5C[C@@H]5c5ccccc5)C4)cc3o2)C[C@@H]1OC [Compound 247, (3S,4S)-1-(2-((3S,4S)-3-methoxy-4-(3-tridecylureido)pyrrolidin-1-yl)benzo[d]oxazole-6-carbonyl)-N3,N4-bis((1S,2R)-2-phenylcyclopropyl)pyrrolidine-3,4-dicarboxamide]
> 1000 nM	–	CCCCCCCCCC(=O)N[C@@H](CNc1nc2ccc(C(=O)N3C[C@@H](C(=O)N[C@H]4C[C@@H]4c4ccccc4)[C@H](C(=O)N[C@H]4C[C@@H]4c4ccccc4)C3)cc2s1)C(=O)NCCCCCC [Compound 262, (3S,4S)-1-(2-(((S)-2-decanamido-3-(hexylamino)-3-oxopropyl)amino)benzo[d]thiazole-6-carbonyl)-N3,N4-bis((1S,2R)-2-phenylcyclopropyl)pyrrolidine-3,4-dicarboxamide]
351 to 1000 nM	–	CCCCCCCCCCCCCNC(=O)N[C@H]1CN(c2ncc(-c3ccc(C(=O)N4C[C@@H](C(=O)N[C@H]5C[C@@H]5c5ccccc5)[C@H](C(=O)N[C@H]5C[C@@H]5c5ccccc5)C4)cc3)s2)C[C@@H]1OC [Compound 244, (3S,4S)-1-(4-(2-((3S,4S)-3-methoxy-4-(3-tridecylureido)pyrrolidin-1-yl)thiazol-5-yl)benzoyl)-N3,N4-bis((1S,2R)-2-phenylcyclopropyl)pyrrolidine-3,4-dicarboxamide]
> 1000 nM	–	CCCCCCCCCCCCCCNC(=O)[C@@H]1CN(C(=O)c2cccc(C(=O)N3C[C@@H](C(=O)N[C@H]4C[C@@H]4c4ccccc4)[C@H](C(=O)N[C@H]4C[C@@H]4c4ccccc4)C3)c2)CCN1C(C)=O [Compound 164, (3S,4S)-1-(3-((S)-4-acetyl-3-(tetradecylcarbamoyl)piperazine-1-carbonyl)benzoyl)-N3,N4-bis ((1S,2R)-2-phenylcyclopropyl) pyrrolidine-3,4-dicarboxamide]
351 to 1000 nM	–	CCCCCCCC(=O)N1CCCN(C(=O)c2ccc(C(=O)N3C[C@@H](C(=O)N[C@H]4C[C@@H]4c4ccccc4)[C@H](C(=O)N[C@H]4C[C@@H]4c4ccccc4)C3)cc2)C[C@@H]1C(=O)NCCCCCC (single isomer, unassigned) [Compound 146]
–	> 1000 nM	CCCCCCNC(=O)[C@@H]1CN(C(=O)c2ccc(C(=O)N3C[C@@H](C(=O)N[C@H]4C[C@@H]4c4ccccc4)[C@H](C(=O)N[C@H]4C[C@@H]4c4ccccc4)C3)cc2)C[C@H]1NC(=O)CCCCCC [Compound 039]
> 1000 nM	–	CCCCCCCN[C@H]1CN(C(=O)c2ccc(C(=O)N3C[C@@H](C(=O)N[C@H]4C[C@@H]4c4ccccc4)[C@H](C(=O)N[C@H]4C[C@@H]4c4ccccc4)C3)cc2)C[C@@H]1OCCCCCCC [Compound 089, (3S,4S)-1-(4-((3S,4S)-3-(heptylamino)-4-(heptyloxy)pyrrolidine-1-carbonyl)benzoyl)-N3,N4-bis((1S,2R)-2-phenylcyclopropyl)pyrrolidine-3,4-dicarboxamide]
351 to 1000 nM	–	O=C1CCCCCCCCCCCCNC(=O)[C@H](CNC(=O)c2ccc(C(=O)N3C[C@@H](C(=O)N[C@H]4C[C@@H]4c4ccccc4)[C@H](C(=O)N[C@H]4C[C@@H]4c4ccccc4)C3)cc2)N1 [Compound 225, (3S,4S)-1-(4-((((S)-3,17-dioxo-1,4-diazacycloheptadecan-2-yl)methyl)carbamoyl)benzoyl)-N3,N4-bis((1S,2R)-2-phenylcyclopropyl)pyrrolidine-3,4-dicarboxamide]
–	51 to 350 nM	CCCCCCCNC(=O)C1CN(C(=O)c2ccc(C(=O)N3C[C@@H](C(=O)N[C@H]4C[C@@H]4c4ccccc4)[C@H](C(=O)N[C@H]4C[C@@H]4c4ccccc4)C3)cc2)CCN1C(=O)CCCCCCC (stereo partly shown) [Compound 058]
> 1000 nM	–	CCCCCCCCCCCCCCC(=O)N[C@@H]1CCN(Cc2ccc(C(=O)N3C[C@@H](C(=O)N[C@H]4C[C@@H]4c4ccccc4)[C@H](C(=O)N[C@H]4C[C@@H]4c4ccccc4)C3)cc2)C1=O [Compound 126, (3S,4S)-1-(4-(((R)-2-oxo-3-pentadecanamidopyrrolidin-1-yl)methyl)benzoyl)-N3,N4-bis((1S,2R)-2-phenylcyclopropyl)pyrrolidine-3,4-dicarboxamide]
> 1000 nM	–	CCCCCCCCCCCNC(=O)[C@@H]1CN(C(=O)c2ccc(C(=O)N3C[C@@H](C(=O)N[C@H]4C[C@@H]4c4ccccc4)[C@H](C(=O)N[C@H]4C[C@@H]4c4ccccc4)C3)cc2)CCN1C(C)=O [Compound 256, (3S,4S)-1-(4-((S)-4-acetyl-3-(undecylcarbamoyl)piperazine-1-carbonyl)benzoyl)-N3,N4-bis((1S,2R)-2-phenylcyclopropyl) pyrrolidine-3,4-dicarboxamide]
> 1000 nM	–	CCCCCCCCCCCCCNC(=O)N[C@H]1CN(c2nnc(-c3ccc(C(=O)N4C[C@@H](C(=O)N[C@H]5C[C@@H]5c5ccccc5)[C@H](C(=O)N[C@H]5C[C@@H]5c5ccccc5)C4)cc3)[nH]2)C[C@@H]1OC [Compound 237, (3S,4S)-1-(4-(5-((3S,4S)-3-methoxy-4-(3-tridecylureido)pyrrolidin-1-yl)-4H-1,2,4-triazol-3-yl)benzoyl)-N3,N4-bis((1S,2R)-2-phenylcyclopropyl)pyrrolidine-3,4-dicarboxamide]
351 to 1000 nM	–	CCCCCCNC(=O)[C@H](CNC(=O)c1ccc(C(=O)N2C[C@@H](C(=O)N[C@H]3C[C@@H]3c3ccccc3)[C@H](C(=O)N[C@H]3C[C@@H]3c3ccccc3)C2)cc1)NC(=O)CCCC [Compound 130, (3S,4S)-1-(4-(((S)-3-(hexylamino)-3-oxo-2-pentanamidopropyl)carbamoyl)benzoyl)-N3,N4-bis((1S,2R)-2-phenylcyclopropyl)pyrrolidine-3,4-dicarboxamide]
–	> 1000 nM	CCCCCCNC(=O)[C@H](CNC(=O)CCCCCC)NC(=O)c1ccc(C(=O)N2C[C@@H](C(=O)N[C@H]3C[C@@H]3c3ccccc3)[C@H](C(=O)N[C@H]3C[C@@H]3c3ccccc3)C2)cc1 [Compound 015]
51 to 350 nM	–	CCCCCCCCCC(=O)N[C@@H](CN1Cc2ccc(C(=O)N3C[C@@H](C(=O)N[C@H]4C[C@@H]4c4ccccc4)[C@H](C(=O)N[C@H]4C[C@@H]4c4ccccc4)C3)cc2C1=O)C(=O)NCCCCCC [Compound 241, (3S,4S)-1-(2-((S)-2-decanamido-3-(hexylamino)-3-oxopropyl)-3-oxoisoindoline-5-carbonyl)-N3,N4-bis((1S,2R)-2-phenylcyclopropyl)pyrrolidine-3,4-dicarboxamide]
